One assay deals with BPH patients. The conditions noted are these: cited from earlier work; for improvement in urinary flow rates and subjective symptom scores: longer term studies.
Assay [1] deals with T1, α-1B adrenoceptor (rat spleen) (Rattus norvegicus, UniProt P15823).
T1 construct: PE-induced contraction of rat spleen; from tissue; host or cells: isolated rat spleen
T1 sequence (P15823 1-515): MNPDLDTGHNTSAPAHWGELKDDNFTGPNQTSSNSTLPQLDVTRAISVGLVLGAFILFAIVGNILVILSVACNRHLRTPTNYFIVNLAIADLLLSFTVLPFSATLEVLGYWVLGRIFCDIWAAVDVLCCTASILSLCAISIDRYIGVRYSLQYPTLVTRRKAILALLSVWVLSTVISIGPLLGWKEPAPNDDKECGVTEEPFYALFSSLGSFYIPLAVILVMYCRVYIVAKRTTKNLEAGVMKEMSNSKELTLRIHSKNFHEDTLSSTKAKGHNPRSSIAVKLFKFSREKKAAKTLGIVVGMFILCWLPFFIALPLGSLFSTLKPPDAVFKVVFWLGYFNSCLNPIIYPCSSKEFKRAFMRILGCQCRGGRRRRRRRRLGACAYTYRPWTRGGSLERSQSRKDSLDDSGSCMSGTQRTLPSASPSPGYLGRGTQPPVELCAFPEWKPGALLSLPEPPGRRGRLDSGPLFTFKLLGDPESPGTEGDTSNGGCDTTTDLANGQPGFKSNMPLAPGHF
Description: Functional antagonism of phenylephrine-induced contraction of rat spleen. Format: cell-based. The conditions noted are these: vs phenylephrine-induced contraction, Schild plot. The source says:
Functional assays indicative of pharmacologically defined α-1 adrenoceptors were used to further characterize compounds. Inhibition of phenylephrine (PE)-induced contraction of canine prostate smooth muscle can be correlated with α-1A adrenoceptor activation. […] For each of these models, agonist dose response curves were repeated against increasing concentrations of test agent to derive a Schild plot [log ([…]) against log (molarity of test agent)] to determine the pA2.

Turning to `COc1cc2nc(N3CCN(C(=O)c4ccco4)CC3)nc(N)c2cc1OC` [prazosin], in the assay on BPH patients, the “improvement in urinary flow rates and subjective symptom scores” value was “significant improvements in urinary flow rates and subjective symptom scores”.
Turning to `COc1cc2nc(N3CCN(C(=O)C4CCCO4)CC3)nc(N)c2cc1OC` (stereo not shown) [terazosin], in assay [1], the “pA2 Rat Spleen [α-1B]” value was 8.6. In the assay on BPH patients, the “improvement in urinary flow rates and subjective symptom scores” value is “significant improvements in urinary flow rates and subjective symptom scores”. Besides, the “clinical efficacy in BPH” value with BPH patients (non-selective α-1 blockers) is on record as “Clinical efficacy of α-1 antagonists in BPH has been demonstrated”.
